Data taken from patent EP0828750B1, “PALLADIUM CATALYZED NUCLEOSIDE MODIFICATION METHODS USING NUCLEOPHILES AND CARBON MONOXIDE” (EC Technology LLC, priority 1995, dated 1996).

What was measured:
[1] = test system: human foreskin fibroblasts (HFF); experiment: Cytotoxicity assay (IC50 determination), crystal violet staining; type: cell-based; conditions: Fibroblast, 336 h, concentration required to inhibit cellular proliferation by 50%, 96-well, 14 day incubation, crystal violet absorbance 620nm
Experimental: (§1) Newborn human foreskins were obtained immediately post-circumcision and placed in minimal essential medium (MEM) supplemented with vancomycin, fungizone, penicillin and gentamycin (all present at standard concentrations) and maintained for four hours under tissue culture conditions (37°C, 5% CO2). Supplemented MEM was then removed and the foreskin material macerated. Tissue fragments were then washed exhaustively (using supplemented MEM) to remove residual erythrocyte contamination.
The erythrocyte-free cell fragments were then exposed to trypsin solution (0.25%) for 15 min with continuous stirring. […]
HFF were seeded into 96-well tissue culture plates at a concentration of 2.5x10^4 cells/ml (100µl MEM with 10% FBS was used as the culture medium) and maintained under tissue culture conditions for 24H prior to experimentation. […] To the first row of each 96-well plate, 125 µl of control media or experimental drug CT1146-26 or CT1146-28 (initial concentration determined by the overall concentration range desired) was added in triplicate wells. […]
Following the incubation period, medium was removed from all wells and the cells stained with 0.1% crystal violet solution for 30 min followed by several wash cycles to remove residual stain. The crystal violet stained plates were then allowed to air dry for 24H prior to reading well absorbance values (620nm) using a Skatron plate reader. […]

[2] = test system: human cytomegalovirus (CMV); experiment: Plaque reduction assay using semi-solid overlay (EC50 determination); type: cell-based; conditions: for EC50: Human betaherpesvirus 5, 336 h, concentration required to inhibit viral cytopathogenicity by 50%, CMV plaques in HFF, agarose overlay, 14 days, drug range 100 to 0.03 µg/ml; for SI: Selectivity Index, SI = IC50/EC50
Experimental: as §1
The erythrocyte-free cell fragments were then exposed to trypsin solution (0.25%) for 15 min with continuous stirring. Tissue fragments were then allowed to settle out of suspension and the supernatant collected and passed through sterile cheesecloth into a flask containing MEM and 10% fetal bovine serum (FBS). The cheesecloth was washed with an additional volume of MEM containing 10% FBS (The flask containing MEM and 10% FBS was maintained on ice throughout the trypsinization procedure). The trypsinization procedure was repeated using fresh trypsin solution, until no additional cell removal from tissue fragments was observed. Cells removed by this process are predominantly human foreskin fibroblasts (HFF).
Cells contained in MEM with 10% FBS were pelleted by centrifugation (≅ 1000 RPM, 4°C, 10 min), the supernatant discarded and the pelleted cells suspended in a minimal volume of MEM with 10% FBS. HFF isolates were then plated into T-25 tissue culture flasks (the number of primary culture flasks used was based on the volume of the recovered cell pellet). HFF isolates were then maintained under tissue culture conditions (37°C, 5% CO2) until confluent. Primary cultures of HFF were sequentially expanded into larger format culture flasks using standard tissue culture procedures. HFF were maintained in the presence of vancomycin and fungizone through passage four.
HFF are plated into 6-well tissue culture plates and maintained under tissue culture conditions for approximately two days prior to use. On the date of assay, experimental drug solutions are prepared as 2X concentrations in 2X MEM. Serial dilutions of experimental drug are then performed (1:5) using 2X MEM. The approximate concentration range for experimental agents being 200 to 0.06 µg/ml. Each drug or control solution was then diluted 1:1 with 0.8% agarose solution. Following dilution with agarose solution, the final experimental drug concentration range was 100 to 0.03 µg/ml, with a final agarose overlay concentration of 0.4%. Viral material (CMV) was diluted in MEM with 10% FBS to yield a concentration of virus producing 20-30 plaques per well. […]
Following incubations, HFF were stained for 4-6H with a 1.5% solution of neutral red. The neutral red/agarose/MEM mixture is aspirated and viral plaques counted using a 10X steriomicroscope. […]

EC50 [2] [µg/mL] | SMILES | IC50 [1] [µg/mL] | SI [2]
< 0.03 | CC(C)NC(=O)c1cn(C2OC(COP(=O)(O)O)C(O)C2O)c(=O)nc1N (stereo not drawn) [CT1146-26] | > 100 | > 3333
< 0.03 | CCCCNC(=O)c1cn(C2OC(COP(=O)(O)O)C(O)C2O)c(=O)nc1N (stereo not drawn) [CT1146-28] | > 100 | > 3333
